Laboratory results: patent US4835139A, “Process for increasing the antagonistic effect of peptidic compounds on hormone-dependent diseases” (Debiopharm S.A., priority 1983, dated 1989)

Legend:
[1] = tested on: prostatic tumor R-3327-H according to Dunning; test: Antagonistic effect on Dunning R-3327-H prostate carcinoma in rats, 30 days; type: in vivo; settings: encapsulated 25 micrograms daily i.m.
Description: (DUNNING R-3327-H PROSTRATE CARCINOMA).

[2] = Body and organ weights of the rats bearing the Dunning R-3327-H tumor; settings: 30 days, encapsulated 25 micrograms daily i.m.
Description: In vivo tests were carried out on groups of 7 to 10 animals during a period of 30 days.
The administration of the non-encapsulated Compound A adequately dissolved in a biocompatible solvent was achieved by the subcutaneous injection of two doses every day, each dose containing 25 micrograms of compound A (Table 2) or 12.5 micrograms of compound A (Table 3).
The administration of the encapsulated compound A was achieved by the daily intra-muscular injection of doses of the preparation suspended in a biocompatible solvent, each such dose containing 25 micrograms of compound A.

[3] = Table 2, non-encapsulated 2 x 25 micrograms/day s.c.
[4] = Table 3, non-encapsulated 2 x 12.5 micrograms/day s.c.

## CC(C)C[C@H](NC(=O)[C@@H](Cc1c[nH]c2ccccc12)NC(=O)[C@H](Cc1ccc(O)cc1)NC(=O)[C@H](CO)NC(=O)[C@H](Cc1c[nH]c2ccccc12)NC(=O)[C@H](Cc1c[nH]cn1)NC(=O)[C@@H]1CCC(=O)N1)C(=O)N[C@@H](CCCNC(=N)N)C(=O)N1CCC[C@H]1C(=O)NCC(N)=O [Compound A non-encapsulated, (pyro) Glu-His-Trp-Ser-Tyr-D-Trp-Leu-Arg-Pro-Gly-NH2]
[1]; [3]
  Increase of tumor volume: 85 + 19%
  Tumor (Dunning R3327-H Prostate Carcinoma): 546 + 0.14 mg
[1]; [4]
  Increase of tumor volume: 110 + 28%
  Tumor (Dunning R3327-H Prostate Carcinoma): 260 + 68 mg
[2]; [3]
  Testicles: 1.36 ± 0.14 g
  Ventral portion of prostate: 54 + 5 mg
[2]; [4]
  Testicles: 1.83 ± 0.07 g
  Ventral portion of prostate: 88 + 7 mg
